Measured values published in article PMC9944328 (Nature Communications, 2023).
Like-named read-outs stand apart in the source and are kept apart here.

System: SSTR2 mutants
Test: NanoBiT β-arrestin 1 recruitment assay, HEK293 (SSTR2 mutants);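 as to Emax: percent of the maximal wild-type SSTR2 response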;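 as to Top: percent of maximal wild-type response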
Assay type: cell-based, human
Set-up: Bottom / Span / Bottom (best-fit) / Span (best-fit) / Best-fit values Bottom / Best-fit values Span / Bottom (best-fit value) / Span (best-fit value):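 percent of maximal wild-type response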
Conditions: for EC50: read-out: EC50
Description: The NanoBiT β-arrestin 1 recruitment assays were carried out according to the method described previously. […] Human full-length SSTR wild-type and mutant vectors were C-terminally fused with a 15-amino acid flexible linker and the small fragment (SmBiT). HEK293 cells were seeded into six-well microplates at a density of 1.0 × 10^6 cells/well and cultured for 24 h at 37 °C with 5% CO2. After that, cells were co-transfected with pcDNA3.1+ vectors encoding SSTR wild-type or mutants and human β-arrestin 1. After transfecting for 24 h, the transfected cells were suspended and seeded into white 96-well plates, and then cultured at 37 °C overnight. After that the medium in each well was exchanged for 90 μl of 0.01% bovine serum albumin containing 20 μl of 50 μM coelenterazine h (Carbosynth) diluted in the HBSS assay buffer and incubated for 40 min at room temperature. Then, ligands diluted in the assay buffer was added to each well and the luminescence intensity was measured using the Synergy H1 microplate reader and detected at room temperature in a time period. All data presented are means of at least three independent experiments.

[1] = best-fit value, T194A-1 (run 1)
[2] = best-fit value, T194A-2 (run 2)
[3] = best-fit value, T194A-3 (run 3)
[4] = best-fit value, V103A-1 (run 1)
[5] = best-fit value, V103A-2 (run 2)
[6] = best-fit value, V103A-3 (run 3)
[7] = β-arrestin recruitment, SSTR2 F127(3.37)A, n=3
[8] = β-arrestin recruitment, SSTR2 I195(45.52)A, n=3, ND = not detected
[9] = β-arrestin recruitment, SSTR2 I284ECL3A, n=3
[10] = β-arrestin recruitment, SSTR2 L290(7.31)A, n=3
[11] = β-arrestin recruitment, SSTR2 P286ECL3A, n=3
[12] = β-arrestin recruitment, SSTR2 S279(6.58)A, n=3
[13] = β-arrestin recruitment, SSTR2 S285ECL3A, n=3
[14] = β-arrestin recruitment, SSTR2 T287ECL3A, n=3
[15] = β-arrestin recruitment, SSTR2 V103(2.64)A, n=3, ND = not detected
[16] = β-arrestin recruitment, SSTR2 W188ECL3A, n=3
[17] = β-arrestin recruitment, SSTR2 W269(6.48)A, n=3
[18] = β-arrestin recruitment, SSTR2 Y50(1.39)A, n=3
[19] = β-arrestin recruitment, SSTR2 Y205(5.35)A, n=3
[20] = β-arrestin recruitment, SSTR2 Y302(7.43)A, n=3

C[C@@H](O)[C@@H]1NC(=O)[C@H](CCCCN)NC(=O)[C@@H](Cc2c[nH]c3ccccc23)NC(=O)[C@H](Cc2ccccc2)NC(=O)[C@@H](NC(=O)[C@H](N)Cc2ccccc2)CSSC[C@@H](C(=O)N[C@H](CO)[C@@H](C)O)NC1=O [octreotide]
LogEC50 (best-fit value, L99A-3 (run 3)): -6.902 | Span (best-fit value, L99A-3 (run 3)): 131.2 | Top (best-fit value, L99A-3 (run 3)): 128.3 | LogEC50 [1]: -7.278 | Span [1]: 56.43 | EC50 [1]: 52.8 nM | LogEC50 [2]: -7.381 | Span [2]: 55.9 | EC50 [2]: 41.6 nM | LogEC50 [3]: -7.29 | Span [3]: 56.81 | EC50 [3]: 51.3 nM | Bottom [4]: -1.867 | LogEC50 [4]: -7.141 | Span [4]: 86.59 | Top [4]: 84.73 | EC50 [4]: 72.2 nM | Bottom [5]: -2.214 | LogEC50 [5]: -7.263 | Span [5]: 87.54 | Top [5]: 85.33 | EC50 [5]: 54.6 nM | Bottom [6]: -2.646 | LogEC50 [6]: -7.193 | Span [6]: 87.08 | Top [6]: 84.44 | EC50 [6]: 64.1 nM | Bottom (best-fit value, Y50A-1 (run 1)): -0.1631 | LogEC50 (best-fit value, Y50A-1 (run 1)): -8.742 | Span (best-fit value, Y50A-1 (run 1)): 56.29 | Top (best-fit value, Y50A-1 (run 1)): 56.13 | EC50 (best-fit value, Y50A-1 (run 1)): 1.81 nM | Bottom (best-fit value, Y50A-2 (run 2)): -2.513 | LogEC50 (best-fit value, Y50A-2 (run 2)): -7.952 | Span (best-fit value, Y50A-2 (run 2)): 74.92 | Top (best-fit value, Y50A-2 (run 2)): 72.41 | EC50 (best-fit value, Y50A-2 (run 2)): 11.2 nM | Bottom (best-fit value, Y50A-3 (run 3)): -0.965 | LogEC50 (best-fit value, Y50A-3 (run 3)): -8.796 | Span (best-fit value, Y50A-3 (run 3)): 58.15 | Top (best-fit value, Y50A-3 (run 3)): 57.19 | EC50 (best-fit value, Y50A-3 (run 3)): 1.6 nM | Bottom (best-fit, I284A-1): 2.896 | LogEC50 (best-fit, I284A-1): -7.134 | Span (best-fit, I284A-1): 74.77 | Top (best-fit, I284A-1): 77.67 | EC50 (best-fit, I284A-1): 73.4 nM | Bottom (best-fit, I284A-2): -1.923 | LogEC50 (best-fit, I284A-2): -7.815 | Span (best-fit, I284A-2): 108.7 | Top (best-fit, I284A-2): 106.8 | EC50 (best-fit, I284A-2): 15.3 nM | Bottom (best-fit, I284A-3): 2.808 | LogEC50 (best-fit, I284A-3): -7.106 | Span (best-fit, I284A-3): 79.8 | Top (best-fit, I284A-3): 82.61 | EC50 (best-fit, I284A-3): 78.4 nM | LogEC50 (best-fit, P286A-1): -8.053 | Span (best-fit, P286A-1): 62.29 | Top (best-fit, P286A-1): 66.68 | EC50 (best-fit, P286A-1): 8.86 nM | Bottom (best-fit, P286A-2): 2.819 | LogEC50 (best-fit, P286A-2): -8.168 | Span (best-fit, P286A-2): 59.43 | Top (best-fit, P286A-2): 62.25 | EC50 (best-fit, P286A-2): 6.79 nM | Bottom (best-fit, P286A-3): 4.198 | LogEC50 (best-fit, P286A-3): -8.213 | Span (best-fit, P286A-3): 84.87 | Top (best-fit, P286A-3): 89.07 | EC50 (best-fit, P286A-3): 6.12 nM | Bottom (best-fit, S285A-1): 2.2 | LogEC50 (best-fit, S285A-1): -9.537 | Span (best-fit, S285A-1): 70 | Top (best-fit, S285A-1): 72.2 | EC50 (best-fit, S285A-1): 0.29 nM | Bottom (best-fit, S285A-2): 3.756 | LogEC50 (best-fit, S285A-2): -9.426 | Span (best-fit, S285A-2): 71.47 | Top (best-fit, S285A-2): 75.22 | EC50 (best-fit, S285A-2): 0.375 nM | Bottom (best-fit, S285A-3): 9.309 | LogEC50 (best-fit, S285A-3): -8.736 | Span (best-fit, S285A-3): 80.53 | Top (best-fit, S285A-3): 89.84 | EC50 (best-fit, S285A-3): 1.84 nM | Bottom (best-fit, T194A-1): -0.5401 | Top (best-fit, T194A-1): 55.89 | Bottom (best-fit, T194A-2): -0.9576 | Top (best-fit, T194A-2): 54.95 | Bottom (best-fit, T194A-3): -0.591 | Top (best-fit, T194A-3): 56.22 | Bottom (best-fit, T287A-1): 4.198 | LogEC50 (best-fit, T287A-1): -8.213 | Span (best-fit, T287A-1): 84.87 | Top (best-fit, T287A-1): 89.07 | EC50 (best-fit, T287A-1): 6.12 nM | Bottom (best-fit, T287A-2): 5.592 | LogEC50 (best-fit, T287A-2): -8.324 | Span (best-fit, T287A-2): 86.73 | Top (best-fit, T287A-2): 92.33 | EC50 (best-fit, T287A-2): 4.75 nM | Bottom (best-fit, T287A-3): 0.1327 | LogEC50 (best-fit, T287A-3): -8.522 | Span (best-fit, T287A-3): 80.53 | Top (best-fit, T287A-3): 80.66 | EC50 (best-fit, T287A-3): 3 nM | LogEC50 (best-fit, W188A-1): -8.611 | Span (best-fit, W188A-1): 57.05 | Top (best-fit, W188A-1): 61.7 | EC50 (best-fit, W188A-1): 2.45 nM | Bottom (best-fit, W188A-2): 0.0794 | LogEC50 (best-fit, W188A-2): -8.245 | Span (best-fit, W188A-2): 81.84 | Top (best-fit, W188A-2): 81.92 | EC50 (best-fit, W188A-2): 5.69 nM | Bottom (best-fit, W188A-3): 6.02 | LogEC50 (best-fit, W188A-3): -8.295 | Span (best-fit, W188A-3): 58.94 | Top (best-fit, W188A-3): 64.96 | EC50 (best-fit, W188A-3): 5.07 nM | Emax (β-arrestin recruitment, I130A, earlier manuscript version quoted by reviewer, superseded): 60% | Emax (β-arrestin recruitment, SSTR2 D295(7.36)A, detected at 10 μM, n=3): 119.20±34.68 %WT | EC50 (β-arrestin recruitment, SSTR2 D295(7.36)A, n=3): 319 ± 6.78 nM | Emax [7]: 52.62±2.57 %WT | EC50 [7]: 4.33 ± 1.53 nM | Emax (β-arrestin recruitment, SSTR2 F208(5.38)A, n=3): 75.93±9.81 %WT | EC50 (β-arrestin recruitment, SSTR2 F208(5.38)A, n=3, ND = not detected): 163 ± 6.17 nM | Emax (β-arrestin recruitment, SSTR2 F265(6.44)A, detected at 10 μM, n=3 octreotide, 4 paltusotine): 67.17±9.75 %WT | Emax (β-arrestin recruitment, SSTR2 I130(3.40)A, detected at 10 μM, n=3): 76.52±9.52 %WT | Emax [8]: 59.10±0.47 %WT | EC50 [8]: 54.3 ± 4.1 nM | Emax [9]: 89.03±9.00 %WT | EC50 [9]: 55.7 ± 2.03 nM | Emax (β-arrestin recruitment, SSTR2 L99(2.60)A, n=3): 96.13±25.27 %WT | EC50 (β-arrestin recruitment, SSTR2 L99(2.60)A, n=3, ND = not detected): 91.6 ± 3.34 nM | Emax [10]: 85.66±1.04 %WT | EC50 [10]: 1.8 nM | Emax (β-arrestin recruitment, SSTR2 P220(5.50)A, n=3): 61.16±16.24 %WT | EC50 (β-arrestin recruitment, SSTR2 P220(5.50)A, n=3 octreotide, 4 paltusotine, ND = not detected): 99.8 ± 9 nM | Emax [11]: 76.51±12.11 %WT | EC50 [11]: 6.35 ± 1.59 nM | Emax (β-arrestin recruitment, SSTR2 Q102(2.63)A, detected at 10 μM, n=3): 57.95±5.20 %WT | Emax [12]: 87.86±7.76 %WT | EC50 [12]: 11.9 ± 4.76 nM | Emax [13]: 79.09±5.45 %WT | EC50 [13]: 0.84 nM | Emax (β-arrestin recruitment, SSTR2 T194(45.51)A, n=3): 55.69±0.38 %WT | EC50 (β-arrestin recruitment, SSTR2 T194(45.51)A, n=3, ND = not detected): 48.7 ± 3.38 nM | Emax [14]: 87.90±2.95 %WT | EC50 [14]: 4.71 ± 8.35 nM | Emax [15]: 84.83±0.26 %WT | EC50 [15]: 63.7 ± 5.11 nM | Emax [16]: 69.46±6.21 %WT | EC50 [16]: 4.34 ± 9.5 nM | Emax [17]: 33.36±2.81 %WT | EC50 [17]: 55.3 ± 1.35 nM | Emax [18]: 61.91±5.26 %WT | EC50 [18]: 4.87 ± 3.17 nM | Emax [19]: 108.30±13.91 %WT | EC50 [19]: 8.52 ± 5.74 nM | Emax [20]: 109.40±18.82 %WT | EC50 [20]: 1.82 nM
